The text below walks through data of patent US12110276B2 (Genentech, Inc., priority 2021, dated 2024).

One test has as its target TEAD3 (Homo sapiens (Human), UniProt Q99594). In words: TR-FRET lipid pocket probe competition assay (Lipid HTRF), TEAD3. It is filed as binding. The conditions noted are these: 4 hours pre-incubation; read-out: Lipid HTRF TEAD3 IC50. (Time-resolved FRET reads energy transfer from a long-lived donor to a nearby acceptor.)
For the next test, the target named is TEAD1 (Homo sapiens (Human), UniProt P28347). In words: TR-FRET lipid pocket probe competition assay (Lipid HTRF), TEAD1.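 Further: His-tagged TEAD1 with biotinylated probe, detected via Europium anti-His and XL665 streptavidin, probe displacement lowers TR-FRET signal, IC50 from four-parameter nonlinear fit.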 Format: binding. To be noted: 4 hours pre-incubation; read-out: Lipid HTRF TEAD1 IC50.
Test [1] concerns the target T1, TEAD2 (Homo sapiens (Human), UniProt Q15562). In words: biochemical.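 Further: TR-FRET competition assay with His-tagged TEAD protein and a biotinylated lipid pocket probe, compound pre-incubated 30 min or 4 h at room temperature, displacement lowers signal.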
A further test has as its target TEAD4 (Homo sapiens (Human), UniProt Q15561). In words: TR-FRET lipid pocket probe competition assay (Lipid HTRF), TEAD4.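 Further: His-tagged TEAD4 with biotinylated lipid-pocket probe, read by Europium anti-His and XL665 streptavidin, where probe displacement lowers the TR-FRET signal, IC50 from a four-parameter fit.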 Format: binding. To be noted: 4 hours pre-incubation; read-out: Lipid HTRF TEAD4 IC50.
Test [2] addresses T1, TEAD2.

Read-outs that look alike come from different tables or passages of the source.

Chain of TEAD3 (Q99594 whole entry, species assumed): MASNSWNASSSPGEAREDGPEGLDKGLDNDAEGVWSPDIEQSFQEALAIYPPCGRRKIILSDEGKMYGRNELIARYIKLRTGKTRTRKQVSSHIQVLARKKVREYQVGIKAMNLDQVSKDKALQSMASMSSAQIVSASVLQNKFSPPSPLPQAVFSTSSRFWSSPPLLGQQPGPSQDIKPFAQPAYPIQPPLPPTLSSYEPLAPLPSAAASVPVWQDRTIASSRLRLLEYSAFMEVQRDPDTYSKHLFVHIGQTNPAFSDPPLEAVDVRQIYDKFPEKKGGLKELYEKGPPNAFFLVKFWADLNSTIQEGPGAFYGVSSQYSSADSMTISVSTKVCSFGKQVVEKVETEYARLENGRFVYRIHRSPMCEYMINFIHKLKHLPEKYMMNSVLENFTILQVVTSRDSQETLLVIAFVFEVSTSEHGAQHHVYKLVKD
T1 sequence (Q15562 whole entry, species assumed): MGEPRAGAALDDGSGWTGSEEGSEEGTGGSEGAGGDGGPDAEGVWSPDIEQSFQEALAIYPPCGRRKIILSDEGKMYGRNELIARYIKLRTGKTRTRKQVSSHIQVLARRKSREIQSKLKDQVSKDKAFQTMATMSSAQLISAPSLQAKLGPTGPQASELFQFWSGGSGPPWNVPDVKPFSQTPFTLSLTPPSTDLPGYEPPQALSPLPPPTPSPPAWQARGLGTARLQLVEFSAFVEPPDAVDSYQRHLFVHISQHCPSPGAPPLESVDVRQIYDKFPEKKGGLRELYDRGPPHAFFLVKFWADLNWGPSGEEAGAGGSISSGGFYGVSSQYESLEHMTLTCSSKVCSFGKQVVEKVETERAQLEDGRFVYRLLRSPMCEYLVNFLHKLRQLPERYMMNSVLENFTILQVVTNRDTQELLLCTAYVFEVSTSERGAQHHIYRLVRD
Chain of TEAD4 (Q15561 whole entry, species assumed): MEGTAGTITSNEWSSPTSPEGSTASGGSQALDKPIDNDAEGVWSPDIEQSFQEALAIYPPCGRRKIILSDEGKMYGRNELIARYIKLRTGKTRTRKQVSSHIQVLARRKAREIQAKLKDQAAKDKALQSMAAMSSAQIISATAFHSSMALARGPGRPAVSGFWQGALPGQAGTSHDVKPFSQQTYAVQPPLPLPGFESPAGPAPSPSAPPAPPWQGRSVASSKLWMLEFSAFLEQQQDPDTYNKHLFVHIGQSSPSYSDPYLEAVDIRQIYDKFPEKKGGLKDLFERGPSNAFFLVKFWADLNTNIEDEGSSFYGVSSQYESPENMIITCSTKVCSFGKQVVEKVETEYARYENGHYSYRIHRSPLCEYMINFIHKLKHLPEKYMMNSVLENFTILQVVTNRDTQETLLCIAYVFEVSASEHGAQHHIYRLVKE
Chain of TEAD1 (P28347 whole entry, species assumed): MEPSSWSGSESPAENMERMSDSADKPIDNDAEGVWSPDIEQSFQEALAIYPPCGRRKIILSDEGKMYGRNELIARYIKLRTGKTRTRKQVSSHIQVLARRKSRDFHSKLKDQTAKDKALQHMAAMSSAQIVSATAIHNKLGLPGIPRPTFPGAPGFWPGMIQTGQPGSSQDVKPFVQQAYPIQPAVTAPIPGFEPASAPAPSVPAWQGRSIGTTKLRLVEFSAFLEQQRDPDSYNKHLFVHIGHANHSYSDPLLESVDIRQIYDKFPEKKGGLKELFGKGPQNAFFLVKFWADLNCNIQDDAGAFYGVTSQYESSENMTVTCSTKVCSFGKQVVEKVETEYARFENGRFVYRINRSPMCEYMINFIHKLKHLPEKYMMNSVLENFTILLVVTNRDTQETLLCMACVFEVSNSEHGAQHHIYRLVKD
Description for TEAD1: (§1) His-tagged TEAD proteins are pre-incubated with TEAD project compounds for 30 minutes or 4 hours at room temperature. Biotinylated lipid pocket probes are then added to the TEAD/Compound mixture and incubated for 60 minutes at room temperature. The lipid pocket probe competes with the test compound for the TEAD lipid pocket until equilibrium is reached. After 60 minutes, Europium labelled anti-His (Perkin Elmer #AD0110) and XL665 labelled streptavidin (CIS Bio 610SAXAC) are added to the TEAD/test compound/lipid pocket mixture and incubated for 30 minutes or 4 hours. […] If a TEAD lipid pocket binder such as binds and displaces the lipid pocket probe, the disruption of the TEAD:probe interaction results in a decrease in TR-FRET signal. The potency of compounds as TEAD lipid pocket binders is determined by IC50 value generated using a non-linear 4 parameter curve fit.
Description for TEAD4: as §1

`C=CC(=O)NCc1nn(-c2ccc(S(F)(F)(F)(F)F)cc2)c2nccc([C@H](O)CO)c12` (stereo in doubt) [Compound 23, N-((4-(1,2-dihydroxyethyl)-1-(4-(pentafluoro-λ^6-sulfanyl)phenyl)-1H-pyrazolo[3,4-b]pyridin-3-yl)methyl)acrylamide]: the IC50 at TEAD3 was 890 nM; on TEAD1, 43 nM; at TEAD2 [1], 66 nM; on TEAD4, 17 nM.

For `C=CC(=O)NCc1nn(-c2ccc(S(F)(F)(F)(F)F)cc2)c2nccc([C@@H](O)CO)c12` (stereo in doubt) [Compound 27, N-((4-(1,2-dihydroxyethyl)-1-(4-(pentafluoro-λ^6-sulfanyl)phenyl)-1H-pyrazolo[3,4-b]pyridin-3-yl)methyl)acrylamide], the IC50 on TEAD3 is 1100 nM; at TEAD1, 290 nM; against TEAD2 [1], 270 nM; at TEAD4 it was 71 nM.

For the molecule `C=CC(=O)NCc1nn(-c2cccc(OC(F)(F)F)c2)c2nccc([C@H](O)CO)c12` (stereo in doubt) [Compound 73, N-((4-(1,2-dihydroxyethyl)-1-(3-(trifluoromethoxy)phenyl)-1H-pyrazolo[3,4-b]pyridin-3-yl)methyl)acrylamide], the half-inhibitory concentration (IC50) at TEAD3 stood at 290 nM; at TEAD1, 870 nM; against TEAD2 [1] it was 430 nM; on TEAD4, 33 nM.

Turning to `C=CC(=O)NCc1nn(-c2ccc(OC(F)(F)F)cc2)c2nccc(-c3cnn(C(C)C)c3)c12` [Compound 170, N-[[4-(1-isopropylpyrazol-4-yl)-1-[4-(trifluoromethoxy)phenyl]pyrazolo[3,4-b]pyridin-3-yl]methyl]prop-2-enamide], the IC50 at TEAD3 amounted to 26600 nM; on TEAD1, 120 nM; at TEAD2 [2], 355 nM; at TEAD4 it was 92.8 nM.

As for `C=CC(=O)NCc1nn(-c2ccc(OC(F)(F)F)cc2)c2nccc(-c3cnn(C4COC4)c3)c12` [Compound 171, N-[[4-[1-(oxetan-3-yl)pyrazol-4-yl]-1-[4-(trifluoromethoxy)phenyl]pyrazolo[3,4-b]pyridin-3-yl]methyl]prop-2-enamide], the half-inhibitory concentration (IC50) at TEAD3 is 810 nM; on TEAD1 it was 60 nM; on TEAD2 [2], 330 nM; at TEAD4 it was 29 nM.

Take `C=CC(=O)NCc1nn(-c2ccc(OC(F)(F)F)cc2)c2nccc(-c3cnn(CCN(C)C)c3)c12` [Compound 172, N-[[4-[1-[2-(dimethylamino)ethyl]pyrazol-4-yl]-1-[4-(trifluoromethoxy)phenyl]pyrazolo[3,4-b]pyridin-3-yl]methyl]prop-2-enamide]: the IC50 on TEAD3 was 19000 nM; on TEAD1, 470 nM; against TEAD2 [2] it was 810 nM; on TEAD4, 150 nM.

For `C=CC(=O)NCc1nn(-c2ccc(OC(F)(F)F)cc2)c2nccc(-c3cnn(C4CC4)c3)c12` [Compound 173, N-((4-(1-cyclopropyl-1H-pyrazol-4-yl)-1-(4-(trifluoromethoxy)phenyl)-1H-pyrazolo[3,4-b]pyridin-3-yl)methyl)acrylamide], the concentration for half-maximal inhibition (IC50) at TEAD3 was determined as 26200 nM; on TEAD1 it was 86 nM; at TEAD2 [2] it was 382 nM; at TEAD4, 52.5 nM.

Consider `C=C(F)C(=O)N1CC(c2nn(-c3ccc(OC(F)(F)F)cc3)c3nccc(-c4cnn(C5COC5)c4)c23)C1` [Compound 175, 2-fluoro-1-(3-(4-(1-(oxetan-3-yl)-1H-pyrazol-4-yl)-1-(4-(trifluoromethoxy)phenyl)-1H-pyrazolo[3,4-b]pyridin-3-yl)azetidin-1-yl)prop-2-en-1-one], for which the IC50 at TEAD3 came to 50000 nM; at TEAD1, 62 nM; against TEAD2 [2] it was 420 nM; on TEAD4, 45 nM.

Regarding `C=C(F)C(=O)N1CC(c2nn(-c3ccc(OC(F)(F)F)cc3)c3nccc(-c4cnn(CCOC)c4)c23)C1` [Compound 176, 2-fluoro-1-(3-(4-(1-(2-methoxyethyl)-1H-pyrazol-4-yl)-1-(4-(trifluoromethoxy)phenyl)-1H-pyrazolo[3,4-b]pyridin-3-yl)azetidin-1-yl)prop-2-en-1-one], the IC50 is 50000 nM on TEAD3, 46 nM on TEAD1, 800 nM against TEAD2 [2] and 77 nM on TEAD4.

For `C=C(F)C(=O)N1CC(c2nn(-c3ccc(OC(F)(F)F)cc3)c3nccc(-c4cnn(C5CC5)c4)c23)C1` [Compound 177, 1-(3-(4-(1-cyclopropyl-1H-pyrazol-4-yl)-1-(4-(trifluoromethoxy)phenyl)-1H-pyrazolo[3,4-b]pyridin-3-yl)azetidin-1-yl)-2-fluoroprop-2-en-1-one], the 50% inhibitory concentration (IC50) on TEAD3 is 50000 nM; at TEAD1, 86 nM; against TEAD2 [2], 890 nM; at TEAD4 it was 120 nM.

With `C=C(F)C(=O)N1CC(c2nn(-c3ccc(OC(F)(F)F)cc3)c3nccc(-c4cnn(C(C)C)c4)c23)C1` [Compound 178, 2-fluoro-1-(3-(4-(1-isopropyl-1H-pyrazol-4-yl)-1-(4-(trifluoromethoxy)phenyl)-1H-pyrazolo[3,4-b]pyridin-3-yl)azetidin-1-yl)prop-2-en-1-one], the IC50 at TEAD3 was 50000 nM; at TEAD1, 87 nM; at TEAD2 [2], 860 nM; on TEAD4, 200 nM.

As for `C=C(F)C(=O)N1CC(c2nn(-c3ccc(OC(F)(F)F)cc3)c3nccc(-c4cnn(CCS(C)(=O)=O)c4)c23)C1` [Compound 179, 2-fluoro-1-(3-(4-(1-(2-(methylsulfonyl)ethyl)-1H-pyrazol-4-yl)-1-(4-(trifluoromethoxy)phenyl)-1H-pyrazolo[3,4-b]pyridin-3-yl)azetidin-1-yl)prop-2-en-1-one], the half-inhibitory concentration (IC50) at TEAD3 came to 50000 nM; at TEAD1, 32 nM; at TEAD2 [2] it was 650 nM; on TEAD4, 17 nM.

For the molecule `C=C(F)C(=O)N1CC(c2nn(-c3ccc(OC(F)(F)F)cc3)c3nccc(-c4cnn(CC(=O)N(C)C)c4)c23)C1` [Compound 180, 2-(4-(3-(1-(2-fluoroacryloyl)azetidin-3-yl)-1-(4-(trifluoromethoxy)phenyl)-1H-pyrazolo[3,4-b]pyridin-4-yl)-1H-pyrazol-1-yl)-N,N-dimethylacetamide], the IC50 on TEAD3 was 50000 nM; at TEAD1 it was 43 nM; on TEAD2 [2], 160 nM; at TEAD4, 110 nM.

As for `C=C(F)C(=O)N1CC(c2nn(-c3ccc(OC(F)(F)F)cc3)c3nccc(-c4cnn(CC(N)=O)c4)c23)C1` [Compound 181, 2-(4-(3-(1-(2-fluoroacryloyl)azetidin-3-yl)-1-(4-(trifluoromethoxy)phenyl)-1H-pyrazolo[3,4-b]pyridin-4-yl)-1H-pyrazol-1-yl)acetamide], the IC50 was 50000 nM at TEAD3, 24 nM at TEAD1, 62 nM on TEAD2 [2] and 37 nM at TEAD4.

`C=C(F)C(=O)N1CC(c2nn(-c3ccc(OC(F)(F)F)cc3)c3nccc(-c4cn[nH]c4)c23)C1` [Compound 182, 1-(3-(4-(1H-pyrazol-4-yl)-1-(4-(trifluoromethoxy)phenyl)-1H-pyrazolo[3,4-b]pyridin-3-yl)azetidin-1-yl)-2-fluoroprop-2-en-1-one]: the half-inhibitory concentration (IC50) stood at 440 nM on TEAD3, 25 nM at TEAD1, 130 nM at TEAD2 [2] and 13 nM at TEAD4.

For the molecule `C=C(F)C(=O)N1CC(c2nn(-c3ccc(OC(F)(F)F)cc3Cl)c3nccc(CO)c23)C1` [Compound 183, 1-(3-(1-(2-chloro-4-(trifluoromethoxy)phenyl)-4-(hydroxymethyl)-1H-pyrazolo[3,4-b]pyridin-3-yl)azetidin-1-yl)-2-fluoroprop-2-en-1-one], the IC50 came to 1100 nM on TEAD3, 180 nM at TEAD1, 1800 nM against TEAD2 [2] and 110 nM on TEAD4.

As for `C=C(F)C(=O)N1CC(c2nn(-c3ccc(OC(F)(F)F)cc3C)c3nccc(CO)c23)C1` [Compound 184, 2-fluoro-1-(3-(4-(hydroxymethyl)-1-(2-methyl-4-(trifluoromethoxy)phenyl)-1H-pyrazolo[3,4-b]pyridin-3-yl)azetidin-1-yl)prop-2-en-1-one], the IC50 is 790 nM on TEAD3, 140 nM at TEAD1, 2300 nM against TEAD2 [2] and 100 nM at TEAD4.

Take `C=C(F)C(=O)N1CC(c2nn(-c3ccc(OC(F)(F)F)cc3F)c3nccc(CO)c23)C1` [Compound 185, 2-fluoro-1-[3-[1-[2-fluoro-4-(trifluoromethoxy)phenyl]-4-(hydroxymethyl)pyrazolo[3,4-b]pyridin-3-yl]azetidin-1-yl]prop-2-en-1-one]: the IC50 on TEAD3 came out at 260 nM; on TEAD1, 57 nM; against TEAD2 [2], 120 nM; on TEAD4, 31 nM.

Turning to `C=CC(=O)NCc1nn(-c2ccc(OC(F)(F)F)cc2)c2cccc(C#N)c12` [Compound 186, N-((4-cyano-1-(4-(trifluoromethoxy)phenyl)-1H-indazol-3-yl)methyl)acrylamide], the 50% inhibitory concentration (IC50) on TEAD3 came to 255 nM; at TEAD1, 270 nM; against TEAD2 [2], 430 nM; at TEAD4, 52.5 nM.

For the molecule `C=CC(=O)NCc1nn(-c2ccc(OC(F)(F)F)cc2)c2cccnc12` [Compound 187, N-((1-(4-(trifluoromethoxy)phenyl)-1H-pyrazolo[4,3-b]pyridin-3-yl)methyl)acrylamide], the concentration for half-maximal inhibition (IC50) at TEAD3 turned out to be 950 nM; at TEAD1, 91 nM; on TEAD2 [2], 1200 nM; on TEAD4, 55 nM.

As to `C=CC(=O)NCc1nn(-c2ccc(OC(F)(F)F)cc2)c2ncccc12` [Compound 188, N-((1-(4-(trifluoromethoxy)phenyl)-1H-pyrazolo[3,4-b]pyridin-3-yl)methyl)acrylamide], the half-maximal inhibitory concentration (IC50) was determined as 150 nM at TEAD3, 7.2 nM on TEAD1, 84 nM on TEAD2 [2] and 7.3 nM on TEAD4.

Usually IC50 stands for the point on the concentration scale where inhibition reaches its midpoint.
